# Source: ChEMBL document CHEMBL3885881, “DrugMatrix”
# Species on record: Rattus norvegicus
# Assay: DrugMatrix - Regimen: Daily Repeat
# Type: toxicity, organism-based, Sprague-Dawley
# Parameters: regimen Daily Repeat, gender Male, age 6-8 weeks
# Details: in vivo, po, 1200 mg/kg, route oral GAVAGE, dose level High, vehicle 100 % WATER; for ABSOLUTE BASOPHIL / ABSOLUTE EOSINOPHIL / ABSOLUTE LYMPHOCYTE / ABSOLUTE MONOCYTE / ABSOLUTE SEGMENTED NEUTROPHIL / BASOPHIL / EOSINOPHIL / ERYTHROCYTE COUNT / HEMATOCRIT / HEMOGLOBIN / LEUKOCYTE COUNT / LYMPHOCYTE / MEAN CORPUSCULAR HEMOGLOBIN / MEAN CORPUSCULAR HEMOGLOBIN CONCENTRATION / MEAN CORPUSCULAR VOLUME / MONOCYTE / NEUTROPHIL / NUCLEATED RED BLOOD CELLS / PLATELET COUNT: tissue Blood; for ALANINE AMINOTRANSFERASE / ALBUMIN / ALKALINE PHOSPHATASE / ASPARTATE AMINOTRANSFERASE / BLOOD UREA NITROGEN / CARBON DIOXIDE / CHLORIDE / CHOLESTEROL / CREATINE PHOSPHOKINASE / CREATININE / GLUCOSE / LACTATE DEHYDROGENASE / LIPASE / PHOSPHORUS / POTASSIUM / SODIUM / TOTAL BILIRUBIN / TOTAL PROTEIN / URIC ACID: tissue Plasma
compound,measurement,setting,value
CCC1(C)CC(=O)NC1=O (stereo unspecified) [ETHOSUXIMIDE],ABSOLUTE BASOPHIL,"72 h, time 3 day",0 CELLS/uL
same,ABSOLUTE EOSINOPHIL,"72 h, time 3 day",0 CELLS/uL
same,ABSOLUTE LYMPHOCYTE,"72 h, time 3 day",11632.67 CELLS/uL
same,ABSOLUTE MONOCYTE,"72 h, time 3 day",44.67 CELLS/uL
same,ABSOLUTE SEGMENTED NEUTROPHIL,"72 h, time 3 day",722.67 CELLS/uL
same,BASOPHIL,"72 h, time 3 day",0%
same,EOSINOPHIL,"72 h, time 3 day",0%
same,ERYTHROCYTE COUNT,"72 h, time 3 day",5.96 x10E6/uL
same,HEMATOCRIT,"72 h, time 3 day",38.63%
same,HEMOGLOBIN,"72 h, time 3 day",15.43 G/DL
same,LEUKOCYTE COUNT,"72 h, time 3 day",12.4 x10E3/uL
same,LYMPHOCYTE,"72 h, time 3 day",94%
same,MEAN CORPUSCULAR HEMOGLOBIN,"72 h, time 3 day",26 pg
same,MEAN CORPUSCULAR HEMOGLOBIN CONCENTRATION,"72 h, time 3 day",40 G/DL
same,MEAN CORPUSCULAR VOLUME,"72 h, time 3 day",65 fL
same,MONOCYTE,"72 h, time 3 day",0.33%
same,NEUTROPHIL,"72 h, time 3 day",5.67%
same,NUCLEATED RED BLOOD CELLS,"72 h, time 3 day",0 /100WBC
same,PLATELET COUNT,"72 h, time 3 day",1151 x10E3/uL
same,ALANINE AMINOTRANSFERASE,"72 h, time 3 day",70.67 u/L
same,ALBUMIN,"72 h, time 3 day",4.4 G/DL
same,ALKALINE PHOSPHATASE,"72 h, time 3 day",269.67 u/L
same,ASPARTATE AMINOTRANSFERASE,"72 h, time 3 day",95 u/L
same,BLOOD UREA NITROGEN,"72 h, time 3 day",16.33 mg/dL
same,CARBON DIOXIDE,"72 h, time 3 day",28.67 mmol/L
same,CHLORIDE,"72 h, time 3 day",97 MEQ/L
same,CHOLESTEROL,"72 h, time 3 day",100.67 mg/dL
same,CREATINE PHOSPHOKINASE,"72 h, time 3 day",183.67 u/L
same,CREATININE,"72 h, time 3 day",0.14 mg/dL
same,GLUCOSE,"72 h, time 3 day",133 mg/dL
same,LACTATE DEHYDROGENASE,"72 h, time 3 day",123 u/L
same,LIPASE,"72 h, time 3 day",10.67 u/L
same,PHOSPHORUS,"72 h, time 3 day",12.53 mg/dL
same,POTASSIUM,"72 h, time 3 day",7.49 MEQ/L
same,SODIUM,"72 h, time 3 day",140.33 MEQ/L
same,TOTAL BILIRUBIN,"72 h, time 3 day",0.2 mg/dL
same,TOTAL PROTEIN,"72 h, time 3 day",5.97 G/DL
same,URIC ACID,"72 h, time 3 day",1.9 mg/dL
same,ABSOLUTE BASOPHIL,"120 h, time 5 day",0 CELLS/uL
same,ABSOLUTE EOSINOPHIL,"120 h, time 5 day",57.67 CELLS/uL
same,ABSOLUTE LYMPHOCYTE,"120 h, time 5 day",11720.67 CELLS/uL
same,ABSOLUTE MONOCYTE,"120 h, time 5 day",238.33 CELLS/uL
same,ABSOLUTE SEGMENTED NEUTROPHIL,"120 h, time 5 day",2116.67 CELLS/uL
same,BASOPHIL,"120 h, time 5 day",0%
same,EOSINOPHIL,"120 h, time 5 day",0.33%
same,ERYTHROCYTE COUNT,"120 h, time 5 day",6.03 x10E6/uL
same,HEMATOCRIT,"120 h, time 5 day",37.47%
same,HEMOGLOBIN,"120 h, time 5 day",14.97 G/DL
same,LEUKOCYTE COUNT,"120 h, time 5 day",14.13 x10E3/uL
same,LYMPHOCYTE,"120 h, time 5 day",83%
same,MEAN CORPUSCULAR HEMOGLOBIN,"120 h, time 5 day",24.8 pg
same,MEAN CORPUSCULAR HEMOGLOBIN CONCENTRATION,"120 h, time 5 day",39.97 G/DL
same,MEAN CORPUSCULAR VOLUME,"120 h, time 5 day",62.07 fL
same,MONOCYTE,"120 h, time 5 day",1.67%
same,NEUTROPHIL,"120 h, time 5 day",15%
same,NUCLEATED RED BLOOD CELLS,"120 h, time 5 day",0 /100WBC
same,PLATELET COUNT,"120 h, time 5 day",1343 x10E3/uL
same,ALANINE AMINOTRANSFERASE,"120 h, time 5 day",98.67 u/L
same,ALBUMIN,"120 h, time 5 day",4.7 G/DL
same,ALKALINE PHOSPHATASE,"120 h, time 5 day",209.33 u/L
same,ASPARTATE AMINOTRANSFERASE,"120 h, time 5 day",133.67 u/L
same,BLOOD UREA NITROGEN,"120 h, time 5 day",15 mg/dL
same,CARBON DIOXIDE,"120 h, time 5 day",25.67 mmol/L
same,CHLORIDE,"120 h, time 5 day",96.67 MEQ/L
same,CHOLESTEROL,"120 h, time 5 day",108 mg/dL
same,CREATINE PHOSPHOKINASE,"120 h, time 5 day",425.33 u/L
same,CREATININE,"120 h, time 5 day",0.16 mg/dL
same,GLUCOSE,"120 h, time 5 day",121 mg/dL
same,LACTATE DEHYDROGENASE,"120 h, time 5 day",480.67 u/L
same,LIPASE,"120 h, time 5 day",10.67 u/L
same,PHOSPHORUS,"120 h, time 5 day",11.4 mg/dL
same,POTASSIUM,"120 h, time 5 day",6.59 MEQ/L
same,SODIUM,"120 h, time 5 day",141.93 MEQ/L
same,TOTAL BILIRUBIN,"120 h, time 5 day",0.13 mg/dL
same,TOTAL PROTEIN,"120 h, time 5 day",6.37 G/DL
same,URIC ACID,"120 h, time 5 day",1.63 mg/dL
